In brackets after ≈: the same amount, converted by molar mass.
Columns and labels:
murine macrophage cells = test: nitric oxide production by murine macrophage cells (Griess); type: cell-based, C57/BL6 mice; details: for Max concentration: concentration at maximum amplitude; for EC50 conc: concentration corresponding to 50% of maximum amplitude; for Min concentration: lowest concentration inducing a significant response
Procedure, shortened: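 Bone-marrow macrophages from male C57/BL6 mice, differentiated 8 days with L929 supernatant, exposed to serially diluted compound for 22 h at 37 °C. Nitrite in supernatant measured by Griess reaction (562 nm vs 690 nm) against a standard curve. EC50 is concentration giving 50% of maximum amplitude, by line-segment interpolation.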

[1] = tested on: Limulus Amoebocyte Lysate
[2] = tested on: human peripheral blood mononuclear cells; test: inhibition of E. coli LPS-induced α TNF production in human peripheral blood mononuclear cells; type: cell-based; details: product 10 μg/ml; for 50% inhibition LPS: LPS concentration at which α TNF production is 50% of control; for max. Inhibition LPS: LPS concentration corresponding to maximum inhibition
Procedure, shortened: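 PBMC from 6 donors (2×10^6 cells/ml, RPMI/10% FCS) were preincubated 1 h with product (10 μg/ml solution), then 18 h at 37 °C with 10-fold E. coli LPS dilutions (1–0.00001 μg/ml). Secreted TNFα by chemiluminescent ELISA; value is the LPS concentration at 50% inhibition by linear interpolation, plus maximum inhibition.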

Row | Structure (SMILES) | Max concentration (murine macrophage cells) | EC50 conc (murine macrophage cells) | Min concentration (murine macrophage cells) | LAL EU/mg of product [1] | LAL ng of LPS equivalent per mg of product [1] | max. Inhibition [2] | 50% inhibition LPS [2] | max. Inhibition LPS [2] | nitric oxide production (murine macrophage cells)
1 | CCCCCCCCCCCC(=O)O[C@H](CCCCCCCCCCC)CC(=O)N[C@H](CC(=O)NCCCN)C(=O)NCCC[C@H](CO)NC(=O)C[C@H](O)CCCCCCCCCCC [OM-197-AP, N—[(R)-3-dodecanoyloxytetradecanoyl]-D-aspartic acid, α-N-{(4R)-5-hydroxy-4-[(R)-3-hydroxy-tetradecanoylamino]pentyl}-amide β-N-(3-aminopropyl)amide] | > 100 µg/mL | > 13.69 µg/mL | 1.87 µg/mL | <0.5 EU/mg of product | <0.04 ng of LPS equivalent per mg of product | 100% | >1 µg/mL | 0.016 µg/mL | 
2 | CCCCCCCCCCC[C@@H](O)CC(=O)N[C@H](CCCNC(=O)[C@@H](CC(=O)O)NC(=O)C(CCCCCC)OC(=O)CCCCCCCCC)COC(=O)CCCCCN (stereo partly drawn) [OM-197-N′(C10-20C8)-MC-AC, N-(2-decanoyloxyoctanoyl)-D-aspartic acid, α-N-{(4R)-5-(6-aminohexanoyloxy)-4-[(R)-3-hydroxytetradecanoylamino]-pentyl}amide] | > 100 µg/mL | 61.05 µg/mL (≈ 70.2 µM) | 54.3 µg/mL | <0.5 EU/mg of product | <0.04 ng of LPS equivalent per mg of product | 85% | 0.0009 µg/mL | <0.00001 µg/mL | minor production
3 | CCCCCCCCCCCC(=O)O[C@H](CCCCCCCCCCC)CC(=O)N[C@H](CC(=O)O)C(=O)NCCC[C@H](COC(=O)CCCCCNC(=O)CCC(=O)O)NC(=O)C[C@H](O)CCCCCCCCCCC [OM-197-MC-AC-Succ, N—[(R)-3-dodecanoyloxytetradecanoyl]-D-aspartic acid, α-N-{(4R)-5-(6-succinylamidohexanoxyloxy)-4[(R)-3-hydroxy-tetradecanoylamino]pentyl}amide] | > 16 µg/mL | 0.72 µg/mL (≈ 0.666 µM) | 0.28 µg/mL | <0.05 EU/mg of product | <0.004 ng of LPS equivalent per mg of product | 100% | >1 µg/mL | 0.044 µg/mL | 

Source: US8173133B2, “Acyl pseudodipeptides which carry a functionalized auxiliary arm” (OM Pharma, priority 1999, dated 2012)
